Article PMC12670400, “LEKTI-Grafted Sunflower Trypsin Inhibitor: A Potential Therapeutic for Skin Diseases” (Journal of Medicinal Chemistry, 2025)
Counter-ions that a name gives are not always drawn. Like-named read-outs stand apart in the source and are kept apart here. Bridge positions count the residues as written; N and C are the ends. Peptide text beside a SMILES is read from it.

What was measured:
[1] = target: aprotinin (Bos taurus) (UniProt P00974); conditions: cited from earlier work
[2] = target: T1, KLK14 (UniProt Q9P0G3); test: enzyme inhibition assay (fluorogenic substrate); selectivity: inhibition of KLK7, KLK8 or KLK14 activity by the peptide, n = 3; substrates and conditions in the Supporting Information
T1 sequence (Q9P0G3 41-267, species assumed, looked up): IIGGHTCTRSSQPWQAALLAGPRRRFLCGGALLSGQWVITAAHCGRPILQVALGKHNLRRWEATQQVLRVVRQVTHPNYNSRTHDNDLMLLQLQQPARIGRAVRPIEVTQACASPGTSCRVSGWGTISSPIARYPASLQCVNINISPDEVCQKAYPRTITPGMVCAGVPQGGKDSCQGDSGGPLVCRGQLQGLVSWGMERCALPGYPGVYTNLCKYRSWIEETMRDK

[3] = target: T2, KLK8 (UniProt O60259 33-260); test: as above
T2 construct: Kallikrein 8 (KLK8); construct and source are in the Supporting Information
T2 sequence (looked up): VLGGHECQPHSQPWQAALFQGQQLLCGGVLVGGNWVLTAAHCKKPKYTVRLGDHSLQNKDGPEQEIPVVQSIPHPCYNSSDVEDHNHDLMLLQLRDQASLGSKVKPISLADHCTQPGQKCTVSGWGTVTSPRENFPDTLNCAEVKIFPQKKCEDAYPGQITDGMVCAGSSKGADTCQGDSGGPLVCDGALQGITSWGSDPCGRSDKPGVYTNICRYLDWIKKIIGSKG

[4] = target: Kallikrein-related peptidase 5 (KLK5) (UniProt Q9Y337); test: enzyme inhibition assay (fluorogenic substrate); inhibition of KLK5 activity by the peptide, fluorogenic substrate Boc-VPR-AMC, n = 3; conditions in the Supporting Information
[5] = target: T3, KLK7 (Homo sapiens, UniProt P49862); test: Protease activity assay: inhibition of recombinant KLK7 (Mca-RPKPVE-Nval-WRK(Dnp)-NH2 substrate); type: biochemical; set-up: purchased R&D Systems 2624-SE; conditions: n = 3; 100 nM KLK7, 37°C, 20 hours; read-out: IC50 (n = 3)/nM for KLKs: KLK7
Excerpt: using the following equation: […]
(1 picture or pasted object on this page, not shown here)

[6] = target: T4, KLK5 (Homo sapiens, UniProt Q9Y337); test: Protease activity assay: inhibition of recombinant KLK5 (Boc-VPR-AMC substrate); type: biochemical; conditions: for selectivity for KLK5 against select KLKs in skin: KLK5 versus other skin KLKs; for IC50: n = 3, 10 nM KLK5, Boc-VPR-AMC 100 µM, PBS pH 8.0, read-out: IC50 (n = 3)/nM for KLKs: KLK5
T4 construct: purchased R&D Systems 1108-SE
T4 sequence (Q9Y337 23-293): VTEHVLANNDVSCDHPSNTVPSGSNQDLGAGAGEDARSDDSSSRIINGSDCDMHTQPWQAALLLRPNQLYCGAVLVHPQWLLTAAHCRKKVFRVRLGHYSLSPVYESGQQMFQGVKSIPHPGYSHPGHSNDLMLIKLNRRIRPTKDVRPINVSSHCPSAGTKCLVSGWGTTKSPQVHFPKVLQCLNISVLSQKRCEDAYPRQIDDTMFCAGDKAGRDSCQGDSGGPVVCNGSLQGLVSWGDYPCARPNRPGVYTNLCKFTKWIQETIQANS
Experimental: Inhibitory activity against KLK5 was evaluated using the fluorogenic substrate Boc-VPR-AMC for KLK5 (Table ). […] The P1–P1′ reactive site (Arg5 to Ser6) is critical for inhibitor binding, with the P1′ position contributing up to 50% of the total association energy. , The conserved serine at P1′ in Bowman-Birk inhibitors (BBIs) is essential for function. […] Preservation of serine in the P1′ position restored inhibitory activity seen in 5 and 6. Preserving the native serine restored efficacy to the nanomolar range (5: 31 ± 7 nM; 6: 114 ± 11 nM).
Methods for biological experiment
SFTI analogues were created by individual amino acid substitutions in PYMOL (Python Molecular Graphics System) using the existing solution NMR structure of native SFTI - 1 (1JBL) found in the RCSB (Research Collaboratory for Structural Bioinformatics) database. Residues of 2 were mutated as follows: L5R, I10H, and F12W with conserved SFTI-1 backbone structure. Other SFTI based analogues were further modified using PYMOL. Currently, there are no SFTI-1 and Kallikrein 5 co-crystal structures found in the RCSB database. Superimposing the existing crystal structure of SFTI-1 and Trypsin complex (4XOJ) with Kallikrein 5 crystal structure (2PSX) was performed with PYMOL. Ab-initio docking between KLK5 and 2 were performed with HADDOCK 2.4 1, 2, with binding active site parameter set to Arg2, Cys3, Thr4, Arg5, Ser6 for 2 and Ser195, His57, and Asp102 for KLK5 catalytic triad. PRODIGY 3-5, set at 25 °C, was used to predict dissociation constant and binding interactions of docked clusters. Structural visualization and alignment were performed with PYMOL 6, and comparative sequence analysis was performed with MEGA11 7.
A fluorescence spectrometer using SpectraMax® i3x plate reader (Molecular Devices, United States) was used to measure the relative fluorescence unit (RFU) on a 96-well black microplate (Grenier Bio-one, cat no. 655074). The wavelengths were set to 360/460 nm (excitation/emission) for the substrate Boc-VPR-AMC (Bachem AG, cat no. 4003460) and 320/405nm for the substrate Mca-RPKPVE-Nval-WRK(Dnp)-NH2 Fluorogenic MMP Substrate (R&D Systems Biotechne, cat no.ES002). The Boc-VPR-AMC stock solution was prepared by dissolving the solid form in dimethyl sulfoxide to 100 mM. Mca-RPKPVE-Nval-WRK(Dnp)-NH2 fluorogenic MMP Substrate is supplied as stock solution at 10.0 mg/mL in dimethyl sulfoxide. Boc-VPR-AMC was used as a substrate for KLK5, 8 and 14. Mca-RPKPVE-Nval-WRK(Dnp)-NH2 was used as a substrate for KLK7. The ligand-only solution serves as a negative control (minimum RFU, 100% inhibition), and enzyme-only was served as positive (maximum RFU, 0% inhibition). The activities of proteases were measured and readout against the standard curve made in serial dilutions of tested recombinant KLKs, ranging from 0nM to 60nM. Each assay was done in triplicates and repeated at least for three times […]
Assessment of analogue mediated inhibition of KLK5, KLK7, KLK8, and KLK14 […]
Recombinant KLK5 (R&D Systems, cat no. 1108-SE) was diluted to a final concentration of 10 nM in 1X PBS (pH 8.0). KLK5 was pre -incubated on ice for 1 hour with serial dilutions of SFTI-derived analogues to assess inhibitory activity. After incubation, 20 µL of each mixture was transferred to we lls of a 96-well microplate in triplicates. The enzymatic reaction was initiated by adding 100 µL of Boc -VPR-AMC substrate (final concentration 100 µM) to each well. Fluorescence (RFU) was measured using a SpectraMax® i3x plate reader with chamber temperature maintained at 37°C. Readings were started at 0 minutes (baseline) and another […]
Recombinant KLK7 (R&D Systems , cat no. 2624-SE) and KLK14 (R&D Systems, cat no. 2664-SE) were activated by adding 1 mM CaCl ₂ 0.05% v/v Brij-35 (Sigma, cat no. […]
incubated at 37°C for 1 hour. Reactions were stopped by adding EDTA to a final concentration of 50 mM (Sigma, cat no. EDS-100G) KLK8 (catalytic domain only; R&D Systems, cat no. 2025-SE-010) was activated separately with 11 nM lysyl […]

[7] = target: plasmin; set-up: method as in PMID 7543841; conditions: read-out: Ki against trypsin-like plasmin; cited from earlier work
[8] = system: plasma kallikrein; set-up: method as in PMID 143965; conditions: cited from earlier work
[9] = system: thrombin; set-up: method as in PMID 143965; conditions: cited from earlier work
[10] = system: trypsin; set-up: method as in PMID 143965; conditions: cited from earlier work
[11] = system: plasmin; set-up: method as in PMID 143965; conditions: cited from earlier work
[12] = target: LEKTI-2 (Homo sapiens) (UniProt Q5DT21); conditions: cited from earlier work
[13] = target: T5, KLK8 (Homo sapiens, UniProt O60259); set-up: method as in Chen et al. (2016); conditions: ref Chen et al. (2016); read-out: IC50 (n = 3)/nM for KLKs: KLK8; cited from earlier work
T5 construct: purchased R&D Systems 2025-SE-010
T5 sequence (O60259 33-260): T2 sequence (looked up)

[14] = target: T4, KLK5; set-up: method as in Chen et al. (2016); conditions: earlier work of the authors; ref Chen et al. (2016); read-out: IC50 (n = 3)/nM for KLKs: KLK5; cited from earlier work
[15] = target: T6, KLK14 (Homo sapiens, UniProt Q9P0G3); conditions: prior findings, reference not given; cited from earlier work
T6 construct: purchased R&D Systems 2664-SE
T6 sequence (Q9P0G3 25-251): T1 sequence (Q9P0G3 41-267, species assumed, looked up)

[16] = target: T3, KLK7; set-up: purchased R&D Systems 2624-SE; conditions: prior findings, reference not given; cited from earlier work
Target sequence in this assay (P49862 30-253): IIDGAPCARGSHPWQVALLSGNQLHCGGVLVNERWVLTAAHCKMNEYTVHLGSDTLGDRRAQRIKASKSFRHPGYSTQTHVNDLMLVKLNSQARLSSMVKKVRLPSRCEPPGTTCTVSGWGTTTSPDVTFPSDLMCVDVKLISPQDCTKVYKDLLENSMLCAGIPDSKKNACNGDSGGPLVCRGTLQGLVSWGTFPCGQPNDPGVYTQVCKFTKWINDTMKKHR

Molecule: plasmin (from UniProt P00747)
- Ki [1]: 0.07 nM

Molecule: Sunflower trypsin inhibitor-1 (SFTI-1) 1 (peptide)
- IC50 [2]: 30 nM
- IC50 [3]: 1290 nM
- IC50 [4]: 230 nM

Molecule: C[C@@H](O)[C@@H]1NC(=O)[C@@H]2CSSC[C@H](NC(=O)[C@H](CCC(=O)O)NC(=O)[C@@H]3CCCN3C(=O)[C@@H]3CCCN3C(=O)[C@H](CO)NC(=O)[C@H](CO)NC(=O)[C@H](CCCNC(=N)N)NC1=O)C(=O)N[C@@H](Cc1c[nH]c3ccccc13)C(=O)N1CCC[C@H]1C(=O)N[C@@H](CC(N)=O)C(=O)NCC(=O)N[C@@H](Cc1ccc(O)cc1)C(=O)N2 [compound 10] (cyclo(GYCTRSSPPECWPN); disulfide 3-11)
- IC50 [5]: 240 ± 14 nM
- selectivity for KLK5 against select KLKs in skin [6]: 4 fold
- IC50 [6]: 56 ± 7 nM

Molecule: Aprotinin
- Ki [7]: 0.07 nM

Molecule: C[C@@H](O)[C@@H]1NC(=O)[C@@H]2CSSC[C@H](NC(=O)[C@H](CCC(=O)O)NC(=O)[C@@H]3CCCN3C(=O)[C@@H]3CCCN3C(=O)[C@H](CO)NC(=O)[C@H](CO)NC(=O)[C@H](CCCNC(=N)N)NC1=O)C(=O)N[C@@H](Cc1c[nH]c3ccccc13)C(=O)N1CCC[C@H]1C(=O)N[C@@H](CC(N)=O)C(=O)NCC(=O)N[C@@H](CO)C(=O)N2 [compound 9] (cyclo(GSCTRSSPPECWPN); disulfide 3-11)
- IC50 [5]: 165 ± 12 nM
- selectivity for KLK5 against select KLKs in skin [6]: 4 fold
- IC50 [6]: 54 ± 6 nM

Molecule: CCOC(=O)c1ccc(OC(=O)CCCCCN=C(N)N)cc1 [Gabexate mesylate]
- IC50 [8]: 41000 nM
- IC50 [9]: 110000 nM
- IC50 [10]: 9400 nM
- IC50 [11]: 30000 nM

Molecule: KLK5 (from UniProt Q9Y337)
- Ki [12]: 65 nM

Molecule: Sunflower trypsin inhibitor-1 [compound 1]
- IC50 [13]: 1290 ± 51 nM
- IC50 [14]: 230 ± 3 nM

B1: LEKTI-2: LEKTI-2, encoded by SPINK9, selective binding to KLK5 (protein, UniProt Q5DT21 20-86, looked up)
Serine protease inhibitor …: IECAKQTKQMVDCSHYKKLPPGQQRFCHHMYDPICGSDGKTYKNDCFFCSKVKKTDGTLKFVHFGKC
- inhibition of KLK14 [15]: without potently inhibiting
- inhibition of KLK7 [16]: without potently inhibiting
